Source: patent publication US9127001B2, “Substituted 4,5,6,7-tetrahydro-1H-pyrazolo[4,3-c]pyridines, their use as medicament, and pharmaceutical preparations comprising them” (Sanofi, priority 2011, dated 2015)

Columns and labels:
[1] = target: Human TASK-1 channels (Homo sapiens (Human), UniProt O14649); assay: Activity on the TASK-1 channel in Xenopus oocytes (two-microelectrode voltage clamp); format: cell-based; settings: human TASK-1 expressed in Xenopus oocytes, currents during pulses to 40 mV, room temperature
Method in brief: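 Human TASK-1 was expressed in defolliculated Xenopus laevis oocytes by in vitro-synthesised RNA injection and recorded by two-microelectrode voltage clamp. Oocytes were superfused with ND96 (pH 7.4) at room temperature, with compound added at rising concentrations. IC50 came from a general dose-response fit.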

[2] = system: left atrium of the anesthetized pig; assay: Refractory period and left-atrial vulnerability in the anesthetized pig; format: in vivo; settings: bolus 1 mg/kg, mean value n = 3
Method: Investigation of the Refractory Period and the Left-Atrial Vulnerability in the Pig
The compounds were tested for prolongation of the refractory period and antiarrhythmic activity on the atrium of the anesthetized pig as described in the literature (Knobloch et al. 2002. Naunyn-Schmiedberg's Arch. Pharmacol. 366; 482-487). Here the anti-arrhythmic action relates to the inhibition of the occurrence of episodes of arrhythmias which are induced by a prematurely placed extra-stimulus (S2) in the left atrium (=left-atrial vulnerability). The refractory period values are stated in percent of the basal values 15 minutes after injection. Mean values for the refractory periods are shown from three rates (150, 200 and 250/min).
The action of 3-[5-Acetyl-1-(2,4-difluoro-benzyl)-4,5,6,7-tetrahydro-1H-pyrazolo[4,3-c]pyridin-3-yl]-benzonitrile (6a) on the refractory period of the left atrium and antiarrhythmic activity in the anesthetized pig after a bolus administration of 1 mg/kg is shown in table 1. From the results shown in table 1, it is seen that it was possible to prevent 61% of the induced arrhythmias.

Sequence of Human TASK-1 channels (O14649 whole entry, the tested form may be a part): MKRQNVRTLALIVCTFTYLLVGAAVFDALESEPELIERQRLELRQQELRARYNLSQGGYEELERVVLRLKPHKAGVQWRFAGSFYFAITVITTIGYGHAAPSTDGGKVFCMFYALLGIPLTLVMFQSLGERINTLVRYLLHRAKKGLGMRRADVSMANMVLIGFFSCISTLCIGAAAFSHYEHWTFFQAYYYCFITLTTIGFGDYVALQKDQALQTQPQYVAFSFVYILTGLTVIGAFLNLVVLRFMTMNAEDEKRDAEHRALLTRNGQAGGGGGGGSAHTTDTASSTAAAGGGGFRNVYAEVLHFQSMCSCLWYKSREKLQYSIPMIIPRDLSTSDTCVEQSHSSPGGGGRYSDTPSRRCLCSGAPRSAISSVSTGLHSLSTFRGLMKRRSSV

`CC(=O)N1CCc2c(c(-c3cccc(C#N)c3)nn2Cc2ccc(F)cc2F)C1` [Example 6a, 3-[5-Acetyl-1-(2,4-difluoro-benzyl)-4,5,6,7-tetrahydro-1H-pyrazolo[4,3-c]pyridin-3-yl]-benzonitrile] was tested, and the IC50 [1] was 95 nM, the “% inhibition of the arrhythmias” value ([2]; S2-induced arrhythmias, 3 measurements before vs. 3 during first hour after administration) was 61% and the “% increase in the refractory period” value ([2]; left atrium, 15 minutes after injection, mean of three rates (150, 200 and 250/min)) was 14%.
